For the first assay, the system named is BaF3 (EGFR L858R/T790M/C797S). Put plainly: Cell proliferation IC50 assay (Cell Titer GLO), BaF3 LTC cells. To be noted: Mus musculus, Ba/F3 EGFR, Table 6, 72 h. The assay is classed as cell-based. Put shortly: (§1)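 Each cell line, plated at 2000-4000 cells/well, received serially diluted compound for 72 h (37° C, 5% CO2) before luminescent ATP-based viability detection. IC50 values were derived from growth inhibition relative to DMSO-treated and cell-free blank wells.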
Background: ATP-based viability assays read luminescence as a measure of living cells.
As usually defined, the IC50 is the midpoint of a concentration-inhibition curve. As to `CCc1cc(Nc2ncc(Cl)c(Nc3ccccc3P(C)(C)=O)n2)c(OC)cc1N1CCC(N2CCN(C(=O)CCC#Cc3cccc4c3CN(C3CCC(=O)NC3=O)C4=O)CC2)CC1` (stereo not shown) [Example E50], the IC50 is 58.1 nM.
Still for that read-out and setting: as for `CCc1cc(Nc2ncc(Cl)c(Nc3ccccc3P(C)(C)=O)n2)c(OC)cc1N1CCC(N2CCN(CCCCOc3cccc4c3CN(C3CCC(=O)NC3=O)C4=O)C(=O)C2)CC1` (stereo not shown) [Example E87], the figure is 51.8 nM.
Still for that read-out and setting: the value for `COc1cc(C2CCN(C3CCN(CCCCOc4cccc5c4CN(C4CCC(=O)NC4=O)C5=O)CC3)CC2)c(OC)cc1Nc1ncc(Cl)c(Nc2ccccc2P(C)(C)=O)n1` (stereo not shown) [Example E98] was 45.2 nM; that for `COc1cc(N2CCC(N3CCN(CCC#Cc4cccc5c4CN(C4CCC(=O)NC4=O)C5=O)CC3)CC2)c(CC#N)cc1Nc1ncc(Cl)c(Nc2ccccc2P(C)(C)=O)n1` (stereo not shown) [Example E180] was 22.6 nM; that for `CCc1cc(Nc2ncc(Cl)c(Nc3ccccc3P(C)(C)=O)n2)c(OC)nc1N1CCC(N2CCN(CCCCOc3cccc4c3CN(C3CCC(=O)NC3=O)C4=O)CC2)CC1` (stereo not shown) [Example E115] was 24.4 nM.

In a further assay the test system is BaF3 (EGFR Del19/T790M/C797S). As to the kind of experiment: Cell proliferation IC50 assay (Cell Titer GLO), BaF3 DTC cells. The assay is classed as cell-based. To be noted: Mus musculus, Ba/F3 EGFR-Del19/T790M/C797S, Table 6, 72 h. Here is the method: IC50 of compounds in the present invention was determined by Cell Titer GLO reagent from Promega. The procedures are as follows:
Tumor cells were cultured in specified medium in an incubator at 37° C. and 5% CO2. The cells were passaged periodically. Cells at the logarithmic growth phase were collected for plating at a density of 2000-4000 cells/well. The next day, the compounds of the present invention were serially diluted and added to the cells, with DMSO being the negative control and the culture media without cells being the blank control. The plate was incubated in the incubator for 72 h. The cell viability assay was performed by adding the detection reagents to the cell culture media according to Cell Titer GLO reagent instructions and detecting luminescent signals on an EnVision microplate reader (PerkinElmer).
Inhibition of cell growth by the compounds of the present invention was plotted by Prism Graphpad software for statistically calculating the IC50 of the compound of the present invention.
The compound `CCc1cc(Nc2ncc(Cl)c(Nc3ccccc3P(C)(C)=O)n2)c(OC)cc1N1CCC(N2CCN(C(=O)CCC#Cc3cccc4c3CN(C3CCC(=O)NC3=O)C4=O)CC2)CC1` (stereo not shown) [Example E50] registered an IC50 of 21.9 nM.
`CCc1cc(Nc2ncc(Cl)c(Nc3ccccc3P(C)(C)=O)n2)c(OC)cc1N1CCC(N2CCN(CCCCOc3cccc4c3CN(C3CCC(=O)NC3=O)C4=O)C(=O)C2)CC1` (stereo not shown) [Example E87] showed an IC50 of 11.5 nM.
`COc1cc(C2CCN(C3CCN(CCCCOc4cccc5c4CN(C4CCC(=O)NC4=O)C5=O)CC3)CC2)c(OC)cc1Nc1ncc(Cl)c(Nc2ccccc2P(C)(C)=O)n1` (stereo not shown) [Example E98] yielded an IC50 of 15.5 nM.
Consider `COc1cc(N2CCC(N3CCN(CCC#Cc4cccc5c4CN(C4CCC(=O)NC4=O)C5=O)CC3)CC2)c(CC#N)cc1Nc1ncc(Cl)c(Nc2ccccc2P(C)(C)=O)n1` (stereo not shown) [Example E180], for which the IC50 is 5.35 nM.
In the case of `CCc1cc(Nc2ncc(Cl)c(Nc3ccccc3P(C)(C)=O)n2)c(OC)nc1N1CCC(N2CCN(CCCCOc3cccc4c3CN(C3CCC(=O)NC3=O)C4=O)CC2)CC1` (stereo not shown) [Example E115], half-maximal inhibition (IC50) was put at 5.19 nM.

In another assay the test system is A431. Put plainly: Cell proliferation IC50 assay (Cell Titer GLO), A431 cells. The format is cell-based. The following applies: Homo sapiens, A-431; Table 6; A431, 72 h; read-out: A431 IC50. Put shortly: as §1
On to `CCc1cc(Nc2ncc(Cl)c(Nc3ccccc3P(C)(C)=O)n2)c(OC)cc1N1CCC(N2CCN(C(=O)CCC#Cc3cccc4c3CN(C3CCC(=O)NC3=O)C4=O)CC2)CC1` (stereo not shown) [Example E50], for which the IC50 was determined as 1350 nM.
Still for that read-out and setting: as for `CCc1cc(Nc2ncc(Cl)c(Nc3ccccc3P(C)(C)=O)n2)c(OC)cc1N1CCC(N2CCN(CCCCOc3cccc4c3CN(C3CCC(=O)NC3=O)C4=O)C(=O)C2)CC1` (stereo not shown) [Example E87], the figure is 3800 nM.
Still for that read-out and setting: the value for `COc1cc(C2CCN(C3CCN(CCCCOc4cccc5c4CN(C4CCC(=O)NC4=O)C5=O)CC3)CC2)c(OC)cc1Nc1ncc(Cl)c(Nc2ccccc2P(C)(C)=O)n1` (stereo not shown) [Example E98] was 1170 nM; that for `COc1cc(N2CCC(N3CCN(CCC#Cc4cccc5c4CN(C4CCC(=O)NC4=O)C5=O)CC3)CC2)c(CC#N)cc1Nc1ncc(Cl)c(Nc2ccccc2P(C)(C)=O)n1` (stereo not shown) [Example E180] was 1100 nM; that for `CCc1cc(Nc2ncc(Cl)c(Nc3ccccc3P(C)(C)=O)n2)c(OC)nc1N1CCC(N2CCN(CCCCOc3cccc4c3CN(C3CCC(=O)NC3=O)C4=O)CC2)CC1` (stereo not shown) [Example E115] was 1160 nM.

Another assay has as its system BaF3 (EGFR WT). As to the kind of experiment: Cell proliferation IC50 assay (Cell Titer GLO), BaF3 WT cells. The assay is classed as cell-based. To be noted: Mus musculus, Ba/F3 EGFR, Table 6, 10 ng/ml EGF, 72 h. Put shortly: as §1
As for `CCc1cc(Nc2ncc(Cl)c(Nc3ccccc3P(C)(C)=O)n2)c(OC)cc1N1CCC(N2CCN(C(=O)CCC#Cc3cccc4c3CN(C3CCC(=O)NC3=O)C4=O)CC2)CC1` (stereo not shown) [Example E50], 1260 nM corresponded to half-maximal inhibition (IC50).
On the same count and under the same terms, the value for `CCc1cc(Nc2ncc(Cl)c(Nc3ccccc3P(C)(C)=O)n2)c(OC)cc1N1CCC(N2CCN(CCCCOc3cccc4c3CN(C3CCC(=O)NC3=O)C4=O)C(=O)C2)CC1` (stereo not shown) [Example E87] was over 4000 nM.
Same read-out and setting: the value for `COc1cc(C2CCN(C3CCN(CCCCOc4cccc5c4CN(C4CCC(=O)NC4=O)C5=O)CC3)CC2)c(OC)cc1Nc1ncc(Cl)c(Nc2ccccc2P(C)(C)=O)n1` (stereo not shown) [Example E98] was 566 nM.
`COc1cc(N2CCC(N3CCN(CCC#Cc4cccc5c4CN(C4CCC(=O)NC4=O)C5=O)CC3)CC2)c(CC#N)cc1Nc1ncc(Cl)c(Nc2ccccc2P(C)(C)=O)n1` (stereo not shown) [Example E180]: the IC50 was 888 nM.
The same measure, in the same setting: the value for `CCc1cc(Nc2ncc(Cl)c(Nc3ccccc3P(C)(C)=O)n2)c(OC)nc1N1CCC(N2CCN(CCCCOc3cccc4c3CN(C3CCC(=O)NC3=O)C4=O)CC2)CC1` (stereo not shown) [Example E115] was 779 nM.

A further assay deals with T1, BaF3 (EGFR Del19/C797S) (Homo sapiens, UniProt P00533, C797S, cells depend on it, form not given).
T1 construct: BaF3 (EGFR Del19/C797S)|DC|RPMI1640 + 10% FBS
T1 sequence (P00533 with tags, fused parts or gaps DEL746-750/C797S, form open): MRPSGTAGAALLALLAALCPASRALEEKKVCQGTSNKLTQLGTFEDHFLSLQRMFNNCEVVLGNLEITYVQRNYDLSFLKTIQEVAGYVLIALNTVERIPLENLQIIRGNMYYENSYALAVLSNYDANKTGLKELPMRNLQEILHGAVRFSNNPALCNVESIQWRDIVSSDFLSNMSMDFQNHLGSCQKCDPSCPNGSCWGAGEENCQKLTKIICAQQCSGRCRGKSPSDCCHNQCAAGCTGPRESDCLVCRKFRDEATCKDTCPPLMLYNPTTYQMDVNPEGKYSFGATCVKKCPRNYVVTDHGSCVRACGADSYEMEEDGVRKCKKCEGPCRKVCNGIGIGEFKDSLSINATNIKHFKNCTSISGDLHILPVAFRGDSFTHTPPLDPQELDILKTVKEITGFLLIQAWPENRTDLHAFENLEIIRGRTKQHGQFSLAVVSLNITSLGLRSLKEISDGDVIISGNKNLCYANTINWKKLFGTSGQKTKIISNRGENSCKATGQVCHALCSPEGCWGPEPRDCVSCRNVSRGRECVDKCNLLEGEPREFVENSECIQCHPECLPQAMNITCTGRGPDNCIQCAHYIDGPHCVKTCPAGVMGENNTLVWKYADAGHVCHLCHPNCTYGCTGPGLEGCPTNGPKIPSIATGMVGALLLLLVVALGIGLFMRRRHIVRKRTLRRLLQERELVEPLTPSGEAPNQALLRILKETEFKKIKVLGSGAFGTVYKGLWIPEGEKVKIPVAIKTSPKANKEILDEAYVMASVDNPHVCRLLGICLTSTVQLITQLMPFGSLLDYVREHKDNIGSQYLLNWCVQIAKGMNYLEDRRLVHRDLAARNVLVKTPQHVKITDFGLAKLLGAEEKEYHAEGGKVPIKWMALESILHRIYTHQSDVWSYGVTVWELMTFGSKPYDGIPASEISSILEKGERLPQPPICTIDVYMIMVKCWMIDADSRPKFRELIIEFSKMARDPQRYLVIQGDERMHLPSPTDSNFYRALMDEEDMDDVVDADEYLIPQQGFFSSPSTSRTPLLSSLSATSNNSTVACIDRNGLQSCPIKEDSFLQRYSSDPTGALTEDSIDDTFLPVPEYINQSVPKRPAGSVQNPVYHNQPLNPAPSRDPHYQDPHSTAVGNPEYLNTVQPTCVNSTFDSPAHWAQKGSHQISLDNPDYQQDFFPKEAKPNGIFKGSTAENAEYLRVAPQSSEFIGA
As to the kind of experiment: Cell proliferation IC50 assay (Cell Titer GLO), BaF3 DC cells. The assay is classed as cell-based, mouse. To be noted: Table 6, 72 h. Put shortly: as §1
With `CCc1cc(Nc2ncc(Cl)c(Nc3ccccc3P(C)(C)=O)n2)c(OC)cc1N1CCC(N2CCN(C(=O)CCC#Cc3cccc4c3CN(C3CCC(=O)NC3=O)C4=O)CC2)CC1` (stereo not shown) [Example E50], the half-inhibitory concentration (IC50) turned out to be 12.6 nM.
Compound `CCc1cc(Nc2ncc(Cl)c(Nc3ccccc3P(C)(C)=O)n2)c(OC)cc1N1CCC(N2CCN(CCCCOc3cccc4c3CN(C3CCC(=O)NC3=O)C4=O)C(=O)C2)CC1` (stereo not shown) [Example E87] showed an IC50 of 5.3 nM.
As for `COc1cc(C2CCN(C3CCN(CCCCOc4cccc5c4CN(C4CCC(=O)NC4=O)C5=O)CC3)CC2)c(OC)cc1Nc1ncc(Cl)c(Nc2ccccc2P(C)(C)=O)n1` (stereo not shown) [Example E98], 5 nM corresponded to half-maximal inhibition (IC50).
In turn, `COc1cc(N2CCC(N3CCN(CCC#Cc4cccc5c4CN(C4CCC(=O)NC4=O)C5=O)CC3)CC2)c(CC#N)cc1Nc1ncc(Cl)c(Nc2ccccc2P(C)(C)=O)n1` (stereo not shown) [Example E180] returned an IC50 of 2.4 nM.
`CCc1cc(Nc2ncc(Cl)c(Nc3ccccc3P(C)(C)=O)n2)c(OC)nc1N1CCC(N2CCN(CCCCOc3cccc4c3CN(C3CCC(=O)NC3=O)C4=O)CC2)CC1` (stereo not shown) [Example E115] gave an IC50 of 1.4 nM.

These data come from patent publication US20240408216A1, “PROTEIN INHIBITOR OR DEGRADING AGENT, PHARMACEUTICAL COMPOSITION CONTAINING SAME AND PHARMACEUTICAL USE” (JING MEDICINE TECHNOLOGY (SHANGHAI) LTD., priority 2021, published 2024).
